Laboratory results published in patent publication US20250179052A1, “PYRIMIDINYL-OXY-QUINOLINE BASED HERBICIDAL COMPOUNDS” (SYNGENTA CROP PROTECTION AG, priority 2022, published 2025).

Legend:
Settings in all cases: 250 g/ha, evaluated after 13 days, five-point scale
[1] = system: Amaranthus retoflexus (AMARE); assay: Post-emergence herbicidal glasshouse test; format: in vivo
AMAPA [2] = assay: Post-emergence herbicidal glasshouse test; format: in vivo, Amaranthus tuberculatus
[3] = system: Echinochloa crus-galli (ECHCG); assay: Post-emergence herbicidal glasshouse test; format: in vivo
[4] = system: Ipomoea hederacea (IPOHE); assay: Post-emergence herbicidal glasshouse test; format: in vivo
Setaria faberi (SETFA) [5] = assay: Post-emergence herbicidal glasshouse test; format: in vivo
[6] = system: Amaranthus retoflexus (AMARE); assay: Pre-emergence herbicidal glasshouse test; format: in vivo
AMAPA [7] = assay: Pre-emergence herbicidal glasshouse test; format: in vivo, Amaranthus tuberculatus
[8] = system: Echinochloa crus-galli (ECHCG); assay: Pre-emergence herbicidal glasshouse test; format: in vivo
[9] = system: Ipomoea hederacea (IPOHE); assay: Pre-emergence herbicidal glasshouse test; format: in vivo
Setaria faberi (SETFA) [10] = assay: Pre-emergence herbicidal glasshouse test; format: in vivo

Compound	percentage damage caused to the plant, AMARE [1]	percentage damage caused to the plant, AMAPA (AMAPA [2])	percentage damage caused to the plant, ECHCG [3]	percentage damage caused to the plant, IPOHE [4]	percentage damage caused to the plant, SETFA (Setaria faberi (SETFA) [5])	percentage damage caused to the plant, AMARE [6]	percentage damage caused to the plant, AMAPA (AMAPA [7])	percentage damage caused to the plant, ECHCG [8]	percentage damage caused to the plant, IPOHE [9]	percentage damage caused to the plant, SETFA (Setaria faberi (SETFA) [10])
CCOc1ncc2c(Oc3ncc(Cl)cn3)cccc2n1 [Compound 1.063, 5-(5-chloropyrimidin-2-yl)oxy-2-ethoxy-quinazoline]	5 (5=81-100%)	5 (5=81-100%)	5 (5=81-100%)	5 (5=81-100%)	4 (4=61-80%)	5 (5=81-100%)	5 (5=81-100%)	5 (5=81-100%)	5 (5=81-100%)	4 (4=61-80%)
Cc1nc(C(F)(F)F)nc2c(C#N)ccc(Oc3ncc(Cl)cn3)c12 [Compound 1.064]	1 (1=0-20%)	1 (1=0-20%)	1 (1=0-20%)	1 (1=0-20%)	1 (1=0-20%)	1 (1=0-20%)	1 (1=0-20%)	1 (1=0-20%)	1 (1=0-20%)	1 (1=0-20%)
Cc1ccc(Oc2ncc(Cl)cn2)c2cnc(C(F)(F)F)nc12 [Compound 1.068]	3 (3=41-60%)	2 (2=21-40%)	1 (1=0-20%)	2 (2=21-40%)	1 (1=0-20%)	5 (5=81-100%)	5 (5=81-100%)	3 (3=41-60%)	2 (2=21-40%)	3 (3=41-60%)
Cc1nc(C(F)(F)Cl)nc2cccc(Oc3ncc(Cl)cn3)c12 [Compound 1.069]	3 (3=41-60%)	3 (3=41-60%)	2 (2=21-40%)	2 (2=21-40%)	2 (2=21-40%)	5 (5=81-100%)	5 (5=81-100%)	2 (2=21-40%)	1 (1=0-20%)	5 (5=81-100%)
Fc1cnc(Oc2cccc3nc(C(F)(F)F)ncc23)nc1 [Compound 1.070]	4 (4=61-80%)	4 (4=61-80%)	4 (4=61-80%)	4 (4=61-80%)	4 (4=61-80%)	5 (5=81-100%)	5 (5=81-100%)	5 (5=81-100%)	5 (5=81-100%)	5 (5=81-100%)
FC(F)(F)c1ncc2c(Oc3ncc(Cl)cn3)ccc(Br)c2n1 [Compound 1.071]	3 (3=41-60%)	2 (2=21-40%)	1 (1=0-20%)	2 (2=21-40%)	1 (1=0-20%)	3 (3=41-60%)	5 (5=81-100%)	3 (3=41-60%)	1 (1=0-20%)	4 (4=61-80%)
Cc1nc(C(F)(F)F)nc2c(Br)ccc(Oc3ncc(Cl)cn3)c12 [Compound 1.072]	1 (1=0-20%)	1 (1=0-20%)	1 (1=0-20%)	1 (1=0-20%)	1 (1=0-20%)	1 (1=0-20%)	2 (2=21-40%)	1 (1=0-20%)	1 (1=0-20%)	1 (1=0-20%)
Cc1ccc(Oc2ncc(Cl)cn2)c2c(C)nc(C(F)(F)F)nc12 [Compound 1.073]	1 (1=0-20%)	1 (1=0-20%)	1 (1=0-20%)	1 (1=0-20%)	1 (1=0-20%)	1 (1=0-20%)	1 (1=0-20%)	1 (1=0-20%)	1 (1=0-20%)	1 (1=0-20%)
